Each compound was assayed against C-Raf FL (Homo sapiens (Human), UniProt P04049, Y340E/Y341E) (assay: In vitro Raf activity determination (Alpha Screen, phospho-MEK), C-Raf FL (full length, Y340E/Y341E)). Settings: ATP 1 μM; 60 min pre-incubation; 1 hour reaction; column head does not say FL or TR.
Format: biochemical
Description: The activity of a compound according to the present invention can be assessed by well-known in vitro & in vivo methods. Raf inhibition data provided herein was obtained using the following procedures.
Sf9 cells co-expressing both proteins were lysed and subjected to immobilized nickel chromatography and eluted with Imidazole. A second column (StrepII binding column) was used and eluted with desthiobiotin. Protein Tags were removed using Prescission enzyme and the protein was further purified using a flowthrough step to remove tags.
C-Raf TR refers to a truncated C-Raf protein, a Δ1-324 deletion mutant. C-Raf FL refers to the full-length C-Raf protein.
Full length MEK1 with an inactivating K97R ATP binding site mutation is utilized as a RAF substrate. The MEK1 cDNA was subcloned with an N-terminal (his)6 tag into a vector for E. Coli expression. The MEK1 substrate was purified from E. Coli lysate by nickel affinity chromatography followed by anion exchange. The final MEK1 preparation was biotinylated (Pierce EZ-Link Sulfo-NHS-LC-Biotin) and concentrated.
Assay protocol: Raf and biotinylated Mek (kinase dead) were combined at 2× final concentrations in assay buffer (50 mM Tris, pH 7.5, 15 mM MgCl2, 0.01% BSA and 1 mM DTT) and dispensed […] per well in assay plates (Greiner white 384 well assay plates #781207) containing […] of 40× of a Raf kinase inhibitor test compound diluted in 100% DMSO. The plate was incubated for 60 minutes at room temperature. […] The reactions were stopped and the phosphorylated product was measured using a rabbit anti-p-MEK (Cell Signaling, #9121) antibody and the Alpha Screen IgG (ProteinA) detection Kit (PerkinElmer #6760617R), by the addition of […] to the well of a mixture of the antibody (1:2000 dilution) and detection beads (1:2000 dilution of both beads) in Stop/bead buffer (25 mM EDTA, 50 mM Tris, pH 7.5, 0.01% Tween20). The additions were carried out under dark conditions to protect the detection beads from light. A lid was placed on top of the plate and incubated for 1 hour at room temperature, after which the luminescence was read on a PerkinElmer Envision instrument. The concentration of each compound for 50% inhibition (IC50) was calculated by non-linear regression using XL Fit data analysis software.

C-Raf FL, sequence (P04049 whole entry Y340E/Y341E): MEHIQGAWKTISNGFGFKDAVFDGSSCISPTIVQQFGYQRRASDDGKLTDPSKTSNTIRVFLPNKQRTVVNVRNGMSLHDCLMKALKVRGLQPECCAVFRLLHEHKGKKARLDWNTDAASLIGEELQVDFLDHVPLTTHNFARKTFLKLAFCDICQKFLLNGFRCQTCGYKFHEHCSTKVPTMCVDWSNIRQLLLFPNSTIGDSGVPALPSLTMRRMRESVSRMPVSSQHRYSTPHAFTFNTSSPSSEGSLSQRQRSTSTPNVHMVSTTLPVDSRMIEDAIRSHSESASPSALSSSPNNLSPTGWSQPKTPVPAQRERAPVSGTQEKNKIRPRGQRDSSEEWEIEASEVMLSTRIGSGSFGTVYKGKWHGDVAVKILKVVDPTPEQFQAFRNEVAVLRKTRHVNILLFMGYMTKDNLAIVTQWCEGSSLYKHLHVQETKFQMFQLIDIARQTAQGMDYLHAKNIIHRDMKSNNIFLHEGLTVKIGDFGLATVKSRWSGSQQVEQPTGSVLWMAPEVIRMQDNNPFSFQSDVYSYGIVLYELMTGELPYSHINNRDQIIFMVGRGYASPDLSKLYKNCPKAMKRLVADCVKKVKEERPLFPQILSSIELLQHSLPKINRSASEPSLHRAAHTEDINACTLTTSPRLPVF
C-Raf FL, sequence (P63104 whole entry partner): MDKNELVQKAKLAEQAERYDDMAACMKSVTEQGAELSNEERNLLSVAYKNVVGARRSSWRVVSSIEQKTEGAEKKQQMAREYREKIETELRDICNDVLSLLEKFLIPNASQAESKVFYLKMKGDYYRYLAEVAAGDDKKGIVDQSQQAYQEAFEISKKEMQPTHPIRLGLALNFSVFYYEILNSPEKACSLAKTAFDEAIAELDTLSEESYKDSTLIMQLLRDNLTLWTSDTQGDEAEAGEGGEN

IC50 [nM]	Structure (SMILES)
9.2	COc1ncc(-c2cc(NC(=O)c3cc(C(F)(F)F)cc(C(C)(C)N)n3)cnc2C)cc1C1(C(F)F)COC1 [Example 148, 6-(2-aminopropan-2-yl)-N-(5′-(3-(difluoromethyl)oxetan-3-yl)-6′-methoxy-2-methyl-[3,3′-bipyridin]-5-yl)-4-(trifluoromethyl)picolin-amide]
0.871	COc1ncc(-c2cc(NC(=O)c3cc(C(F)(F)F)cc(C(C)(C)N)n3)ccc2C)cc1C1(C(F)F)COC1 [Example 149, 6-(2-aminopropan-2-yl)-N-(3-(5-(3-(difluoromethyl)oxetan-3-yl)-6-methoxypyridin-3-yl)-4-methylphenyl)-4-(trifluoromethyl)picolin-amide]
3	COc1ncc(-c2cc(C(=O)Nc3cc(C(C)(C)N)cc(C(F)(F)F)c3)ccc2C)cc1C1(O)COC1 [Example 150, N-(3-(2-aminopropan-2-yl)-5-(trifluoromethyl)phenyl)-3-(5-(3-hydroxyoxetan-3-yl)-6-methoxypyridin-3-yl)-4-methylbenzamide]
0.08	COC1(c2cc(-c3cc(NC(=O)c4cccc(C(F)(F)F)c4)cnc3C)cc(NCCO)n2)COC1 [Example 152, N-(2′-((2-hydroxyethyl)amino)-6′-(3-methoxyoxetan-3-yl)-2-methyl-[3,4′-bipyridin]-5-yl)-3-(trifluoromethyl)benzamide]
0.04	COC1(c2cc(-c3cc(NC(=O)c4cccc(C(F)(F)F)c4)ccc3C)cc(NCCO)n2)COC1 [Example 153, N-(3-(2-((2-hydroxyethyl)amino)-6-(3-methoxyoxetan-3-yl)pyridin-4-yl)-4-methylphenyl)-3-(trifluoromethyl)benzamide]
0.04	COC1(c2cc(-c3cc(NC(=O)c4cc(C(F)(F)F)ccn4)ccc3C)cc(NCCO)n2)COC1 [Example 154, N-(3-(2-((2-hydroxyethyl)amino)-6-(3-methoxyoxetan-3-yl)pyridin-4-yl)-4-methylphenyl)-4-(trifluoromethyl)picolin-amide]
0.3	COC1(c2cc(-c3cc(NC(=O)c4ccnc(C(F)(F)F)c4)ccc3C)cc(OCCO)n2)COC1 [Example 157, N-(3-(2-(2-hydroxyethoxy)-6-(3-methoxyoxetan-3-yl)pyridin-4-yl)-4-methylphenyl)-2-(trifluoromethyl)isonicotin-amide]
0.4	COC1(c2cc(-c3cc(NC(=O)c4ccnc(C(F)F)c4)ccc3C)cc(OCCO)n2)COC1 [Example 158, 2-(difluoromethyl)-N-(3-(2-(2-hydroxyethoxy)-6-(3-methoxyoxetan-3-yl)pyridin-4-yl)-4-methylphenyl)isonicotin-amide]
0.7	COC1(c2cc(-c3cc(NC(=O)c4cccc(C(F)(F)F)c4)cnc3C)cc(OCCO)n2)COC1 [Example 160, N-(2′-(2-hydroxyethoxy)-6′-(3-methoxyoxetan-3-yl)-2-methyl-[3,4′-bipyridin]-5-yl)-3-(trifluoromethyl)benzamide]
2	CCOc1ncc(-c2cc(NC(=O)c3cnnc(C(C)(C)C#N)c3)cnc2C)cc1C1CCOCC1 [Example 161]
1	Cc1ccc(NC(=O)c2ccnc(C(F)(F)F)c2)cc1-c1cc(OCCO)nc(C2CCOCC2O)c1 (stereo not drawn) [Example 162, N-(3-(2-(2-hydroxyethoxy)-6-(3-hydroxytetrahydro-2H-pyran-4-yl)pyridin-4-yl)-4-methylphenyl)-2-(trifluoromethyl)isonicotinamide]
0.3	CCOc1ncc(-c2cc(NC(=O)c3cnnc(C(F)(F)F)c3)cnc2C)cc1C1CCOCC1 [Example 163, N-(6′-ethoxy-2-methyl-5′-(tetrahydro-2H-pyran-4-yl)-[3,3′-bipyridin]-5-yl)-6-(trifluoromethyl) pyridazine-4-carboxamide]
0.4	CCOc1ncc(-c2cc(NC(=O)c3ccnc(C(C)(C)C#N)c3)cnc2C)cc1C1CCOCC1 [Example 164, 2-(2-cyanopropan-2-yl)-N-(6′-ethoxy-2-methyl-5′-(tetrahydro-2H-pyran-4-yl)-[3,3′-bipyridin]-5-yl)isonicotinamide]
1	CCOc1ncc(-c2cc(NC(=O)c3ccnc(C(C)(C)F)c3)cnc2C)cc1C1(CF)CCOC1 (stereo not drawn) [Example 165, N-(6′-ethoxy-5′-(3-(fluoromethyl)tetrahydrofuran-3-yl)-2-methyl-[3,3′-bipyridin]-5-yl)-2-(2-fluoropropan-2-yl)isonicotinamide]
2	CCOc1ncc(-c2cc(NC(=O)c3ccnc(C(C)(C)C#N)c3)cnc2C)cc1C1(CF)CCOC1 (stereo not drawn) [Example 166, 2-(2-cyanopropan-2-yl)-N-(6′-ethoxy-5′-(3-(fluoromethyl)tetrahydrofuran-3-yl)-2-methyl-[3,3′-bipyridin]-5-yl)isonicotinamide]
1	CCOc1ncc(-c2cc(NC(=O)c3cccc(C(F)(F)F)c3)cnc2C)cc1C1(CF)CCOC1 (stereo not drawn) [Example 167, N-(6′-ethoxy-5′-(3-(fluoromethyl)tetrahydrofuran-3-yl)-2-methyl-[3,3′-bipyridin]-5-yl)-3-(trifluoromethyl) benzamide]

More lines, now with the values behind:

Structure (SMILES)	IC50 [nM]
Cc1ncc(NC(=O)c2ccnc(C(C)(C)F)c2)cc1-c1cc(OCCO)nc(C2(CF)COC2)c1 [Example 133, N-(2′-(3-(fluoromethyl)oxetan-3-yl)-6′-(2-hydroxyethoxy)-2-methyl-[3,4′-bipyridin]-5-yl)-2-(2-fluoropropan-2-yl)isonicotinamide]	1.28
Cc1ccc(NC(=O)c2cccc(C(F)(F)F)c2)cc1-c1cc(C2(O)COC2)cc(C2(F)COC2)c1 [Example 134, N-(3′-(3-fluorooxetan-3-yl)-5′-(3-hydroxyoxetan-3-yl)-6-methyl-[1,1′-biphenyl]-3-yl)-3-(trifluoromethyl)benzamide]	0.566
Cc1ccc(NC(=O)c2ccnc(C(F)(F)F)c2)cc1-c1cc(C2(O)COC2)cc(C2(F)COC2)c1 [Example 135, N-(3′-(3-fluorooxetan-3-yl)-5′-(3-hydroxyoxetan-3-yl)-6-methyl-[1,1′-biphenyl]-3-yl)-2-(trifluoromethyl)isonicotin-amide]	0.605
Cc1ccc(NC(=O)c2ccnc(C(C)(F)F)c2)cc1-c1cc(C2(O)COC2)cc(C2(F)COC2)c1 [Example 136, 2-(1,1-difluoroethyl)-N-(3′-(3-fluorooxetan-3-yl)-5′-(3-hydroxyoxetan-3-yl)-6-methyl-[1,1′-biphenyl]-3-yl)isonicotinamide]	0.177
Cc1ccc(NC(=O)c2ccnc(C(C)(C)F)c2)cc1-c1cc(C2(O)COC2)cc(C2(F)COC2)c1 [Example 137, N-(3′-(3-fluorooxetan-3-yl)-5′-(3-hydroxyoxetan-3-yl)-6-methyl-[1,1′-biphenyl]-3-yl)-2-(2-fluoropropan-2-yl)isonicotinamide]	3.32
Cc1ccc(NC(=O)c2ccnc(C(C)(C)C#N)c2)cc1-c1cc(C2(O)COC2)cc(C2(F)COC2)c1 [Example 138, 2-(2-cyanopropan-2-yl)-N-(3′-(3-fluorooxetan-3-yl)-5′-(3-hydroxyoxetan-3-yl)-6-methyl-[1,1′-biphenyl]-3-yl)isonicotinamide]	2.19
Cc1ncc(NC(=O)c2cccc(C(F)(F)F)c2)cc1-c1cc(C2(O)COC2)cc(C2(F)COC2)c1 [Example 139, N-(5-(3-(3-fluorooxetan-3-yl)-5-(3-hydroxyoxetan-3-yl)phenyl)-6-methylpyridin-3-yl)-3-(trifluoromethyl)benzamide]	1.18
Cc1ncc(NC(=O)c2ccnc(C(C)(F)F)c2)cc1-c1cc(C2(O)COC2)cc(C2(F)COC2)c1 [Example 141, 2-(1,1-difluoroethyl)-N-(5-(3-(3-fluorooxetan-3-yl)-5-(3-hydroxyoxetan-3-yl)phenyl)-6-methylpyridin-3-yl)isonicotinamide]	5.9
Cc1ncc(NC(=O)c2ccnc(C(C)(C)F)c2)cc1-c1cc(C2(O)COC2)cc(C2(F)COC2)c1 [Example 142, N-(5-(3-(3-fluorooxetan-3-yl)-5-(3-hydroxyoxetan-3-yl)phenyl)-6-methylpyridin-3-yl)-2-(2-fluoropropan-2-yl)isonicotinamide]	11.2
Cc1ncc(NC(=O)c2ccnc(C(C)(C)C#N)c2)cc1-c1cc(C2(O)COC2)cc(C2(F)COC2)c1 [Example 143, 2-(2-cyanopropan-2-yl)-N-(5-(3-(3-fluorooxetan-3-yl)-5-(3-hydroxyoxetan-3-yl)phenyl)-6-methylpyridin-3-yl)isonicotinamide]	4.36
CCOc1ncc(-c2cc(NC(=O)c3cc(C(F)(F)F)cc(C(C)(C)N)n3)ccc2C)cc1C1(O)COC1 [Example 147, 6-(2-aminopropan-2-yl)-N-(3-(6-ethoxy-5-(3-hydroxyoxetan-3-yl)pyridin-3-yl)-4-methylphenyl)-4-(trifluoromethyl)picolin-amide]	4.51

Source: patent US10167279B2 (NOVARTIS AG, priority 2014, dated 2019)
